“And” between values parts separate entries of the source, which are not always exact repeats. Equal entries are not always repeated. Where two headings read alike, the source gives them in different places.
Tested on: panel of hematologic and solid cancer lines
Assay: 6-day in vitro growth/death assay
Type: cell-based, human
Conditions: for IC50: read-out: gIC50
Procedure: To further develop these molecules and to guide clinical strategy, it was necessary to understand sensitivity in preclinical models by assessing the anti-tumour activity of the PRMT5 inhibitors in various cancers.
Cell lines were obtained from ATCC or DSMZ and were grown in recommended medium, which was most frequently RPMI-1640 containing 10% FBS. Cell line proliferation assays, Western blotting, qRT-PCR, and cell cycle analyses were performed as described previously[27],[28]. Antibody and gene expression reagents are as described in Supplementary Table 16. All studies were conducted in accordance with the GSK Policy on the Care, Welfare and Treatment of Laboratory Animals and were reviewed by the Institutional Animal Care and Use Committee either at GSK or by the ethical review process at the institution where the work was performed. Detailed descriptions of all methods can be found in the Supplemental Materials.

Compound: CC(=O)N1CCC(Nc2cc(C(=O)NC[C@H](O)CN3CCc4ccccc4C3)ncn2)CC1 [GSK3326595]
- IC50 5637: 69 nM
- IC50 (HCC70): 130 nM
- IC50 (HCC1143): 246 nM
- IC50 (HCC1806): 98 nM
- IC50 (Homo sapiens, 5637): 69.3 nM
- IC50 (Homo sapiens, HCC70, HCC70): 130 nM
- IC50 (Homo sapiens, HCC1143, HCC1143): 246 nM
- IC50 (Homo sapiens, HCC1806, HCC1806): 97.6 nM
- IC50 (Homo sapiens, HCC1954, HCC1954): 79.2 nM
- IC50 (Homo sapiens, HT-1376, HT-1376): 17600 nM
- IC50 (Homo sapiens, J82, J82): 29300 nM
- IC50 (Homo sapiens, JM1, JM1): 79 nM
- IC50 (Homo sapiens, KMS-11, KMS-11): 66.5 nM
- IC50 (Homo sapiens, LN-229, LN-229): 254 nM
- IC50 (Homo sapiens, LP-1, LP1): 1940 nM
- IC50 (Homo sapiens, MCF7, MCF-7): 61.7 nM
- IC50 (Homo sapiens, MDA-MB-231, MDA-MB-231): 544 nM
- IC50 (Homo sapiens, MDA-MB-453, MDA-MB-453): 28.7 nM
- IC50 (Homo sapiens, MDA-MB-468, MDA-MB-468): 56.5 nM
- IC50 (Homo sapiens, MINO): 130 nM
- IC50 (Homo sapiens, Maver1, MAVER-1): 84.9 nM
- IC50 (Homo sapiens, NCI-H526, NCI-H526): 275 nM
- IC50 (Homo sapiens, NCI-H526-R): 344 nM
- IC50 (Homo sapiens, NU-DHL-1, NU-DHL-1): 333 nM
- IC50 (Homo sapiens, NU-DUL-1, NU-DUL-1): 333 nM
- IC50 (Homo sapiens, PER-403, PER-403): 38.3 nM
- IC50 (Homo sapiens, PER-624): 524 nM
- IC50 (Homo sapiens, PER-704): 658 nM
- IC50 (Homo sapiens, Pfeiffer): 421 nM
- IC50 (Homo sapiens, RCK8, RCK8): 529 nM
- IC50 (Homo sapiens, RL): 11.8 nM
- IC50 (Homo sapiens, RPMI-8226, RPMI-8226): 21.7 nM
- IC50 (Homo sapiens, RPMI-8226-DOX): 29300 nM
- IC50 (Homo sapiens, RPMI-8226-LR5): 286 nM
- IC50 (Homo sapiens, SCaBER): 198 nM
- IC50 (Homo sapiens, SF-295, SF295): 24700 nM
- IC50 (Homo sapiens, SF-539, SF539): 60.9 nM
- IC50 (Homo sapiens, SK-BR-3, SK-BR-3): 73.1 nM
- IC50 (Homo sapiens, SU-DHL10, SU-DHL-10): 36.7 nM
- IC50 (Homo sapiens, SU-DHL-2, SU-DHL-2): 34.1 nM
- IC50 (Homo sapiens, SU-DHL-4, SU-DHL-4): 492 nM
- IC50 (Homo sapiens, SU-DHL-5, SU-DHL-5): 28.3 nM
- IC50 (Homo sapiens, SU-DHL-6, SU-DHL-6): 3.9 nM
- IC50 (Homo sapiens, SU-DHL-8, SU-DHL-8): 52.5 nM
- IC50 (Homo sapiens, SU-DHL-16, SU-DHL-16): 98.9 nM
- IC50 (Homo sapiens, SW780, SW-780): 290 nM
- IC50 (Homo sapiens, T-24, T24): 765 nM
- IC50 (Homo sapiens, U2932, U2932): 52.5 nM
- IC50 (Homo sapiens, U-87 MG): 39.6 nM
- IC50 (Homo sapiens, U-2940, U2940): 14800 nM
- IC50 (Homo sapiens, UMUC3, UM-UC-3): 29300 nM
- IC50 (Homo sapiens, WSU-NHL): 8.4 nM
- IC50 (Homo sapiens, WSUDLCL2, WSU-DLCL2): 81.7 nM
- IC50 (Homo sapiens, ZR-75-1, ZR-75-1): 11000 nM
- IC50 (J82): 29300 nM
- IC50 (KMS-11): 66 nM
- IC50 (LN-229): 254 nM
- IC50 (LP1): 1940 nM
- IC50 (MAVER-1): 85 nM
- IC50 (MDA-MB-231): 544 nM
- IC50 (MDA-MB-453): 29 nM
- IC50 (MDA-MB-468): 57 nM
- IC50 (MINO): 130 nM and > 100 nM
- IC50 (NCI-H526-R): 344 nM
- IC50 (NCI-H526): 275 nM
- IC50 (PER-403): 38 nM
- IC50 (PER-624): 524 nM
- IC50 (PER-704): 658 nM
- IC50 (RCK8): 529 nM
- IC50 (RL): 14 nM
- IC50 (SF295): 24700 nM
- IC50 (SF539): 61 nM
- IC50 (SK-BR-3): 73 nM
- IC50 (SU-DHL-2): 28 nM
- IC50 (SU-DHL-4): 492 nM
- IC50 (SU-DHL-6): 4 nM
- IC50 (SU-DHL-8): 53 nM
- IC50 (SU-DHL-10): 54 nM
- IC50 (SU-DHL-16): 99 nM
- IC50 (ScaBER): 198 nM
- IC50 (T24): 765 nM
- IC50 (U2932): 53 nM
- IC50 (U2940): 10200 nM
- IC50 (U-87MG): 40 nM
- IC50 (WSU-DLCL2): 82 nM
- IC50 (WSU-NHL): 8 nM
- gIC100 (Z-138): 80.7 nM

Reference: article PMC6018746, “Activation of the p53-MDM4 regulatory axis defines the anti-tumour response to PRMT5 inhibition through its role in regulating cellular splicing” (Scientific Reports, 2018)
